Measured values from ChEMBL document CHEMBL1155390, “Isolation and biological evaluation of 8-epi-malyngamide C from the Floridian marine cyanobacterium Lyngbya majuscula” (J Nat Prod, 2010).
Active and inactive are the calls of the source. The calls are words filed in the database; no cut-off is given here.

What was measured:
[1] = system: Escherichia coli; test: Inhibition of quorum sensing in Escherichia coli JM109 harboring pSB1075 assessed as suppression of LasR-mediated 3-oxo-C12-HSL signaling at 10 to 1000 uM after 6.5 hrs by reporter gene assay
[2] = system: HT-29; test: Cytotoxicity against human HT-29 cells after 48 hrs MTT assay; format: functional, cell-based; details: HT-29, 48 h
[3] = system: Escherichia coli; test: Antibacterial activity against Escherichia coli JM109 harboring pSB1075 assessed as cell density at 10 to 1000 uM after 6.5 hrs

Structure (SMILES)	Activity [1]	IC50 [2] [µM]	Activity [3]
CCCCCCC[C@@H](C/C=C/CCC(=O)NC/C(=C/Cl)[C@]12O[C@H]1[C@H](O)CCC2=O)OC	Active	15.4	inactive
CCCCCCC[C@@H](C/C=C/CCC(=O)NC/C(=C/Cl)[C@]12O[C@H]1[C@@H](O)CCC2=O)OC [MALYNGAMIDE C]	Active	5.2	inactive
